# Measurements published in patent publication US9072734B2, “Quaternary ammonium salt compounds” (Teijin Pharma Limited, priority 2009, dated 2015).
# pEC50, pIC50: −log10 of the molar value. Counter-ions that a name gives are not always drawn.
# How the values were obtained:
# [1] = target: T1, human M3 muscarinic receptor (Homo sapiens, UniProt P20309); assay: Competition binding assays to human M3 muscarinic receptor ([3H]-NMS displacement, membrane fractions); details: competition with 1 nM [3H]-NMS
# T1 construct: expressed in transfected cells; host or cells: CHO-K1
# T1 sequence (P20309 whole entry): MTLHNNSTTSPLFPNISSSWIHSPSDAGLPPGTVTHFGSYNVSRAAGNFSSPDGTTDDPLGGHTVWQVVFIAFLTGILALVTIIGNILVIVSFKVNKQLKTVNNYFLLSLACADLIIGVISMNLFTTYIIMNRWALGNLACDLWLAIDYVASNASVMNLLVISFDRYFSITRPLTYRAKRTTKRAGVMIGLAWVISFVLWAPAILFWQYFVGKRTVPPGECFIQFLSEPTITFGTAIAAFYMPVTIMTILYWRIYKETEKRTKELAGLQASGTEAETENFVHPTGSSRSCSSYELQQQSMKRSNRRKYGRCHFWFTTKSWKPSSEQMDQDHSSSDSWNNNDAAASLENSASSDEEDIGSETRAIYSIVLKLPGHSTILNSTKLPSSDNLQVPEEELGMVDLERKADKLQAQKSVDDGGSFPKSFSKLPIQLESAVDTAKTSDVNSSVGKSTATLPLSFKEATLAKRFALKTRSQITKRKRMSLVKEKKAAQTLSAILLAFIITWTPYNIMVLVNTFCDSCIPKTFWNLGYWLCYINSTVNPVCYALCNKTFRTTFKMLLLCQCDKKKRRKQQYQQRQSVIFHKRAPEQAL
# Protocol: Membrane fractions of human M3 muscarinic receptor were purchased from PerkinElmer, Inc. and stored at −80° C. until use. Phosphate buffered saline (PBS(−), Invitrogen, Co.) was used as assay buffer. The membrane fractions of human M3 muscarinic receptor (10-15 μg of membrane protein) and 1 nM L-[N-methyl-3H]scopolamine methyl chloride ([3H]—NMS) (NET636, 2.59 TBq/mmol, PerkinElmer, Inc.) were added to a final volume of 100 μL and incubated for 2 hours at room temperature (total binding). […] The amount of nonspecific binding was determined in the presence of 5 μM atoropine. […] The filter plates were washed three times with a washing solution (50 mM Tris hydrochloric acid pH 7.4, 0.9% sodium chloride) to remove unbound radioactivity. The plates were then dried and 40 μL Microscint-20 liquid TopCount microplate scintillation cocktail (PerkinElmer Inc.) was added and plates were counted in a Packard TopCount liquid scintillation counter (PerkinElmer, Inc.). The percentage of the binding inhibition by the test compound was calculated according to the following formula. (%)Percentage of binding inhibition=[(Radioactivity of test compound-added sample−Amount of nonspecific binding)/(Amount of total binding−Amount of nonspecific binding)]×100 […]
# [2] = target: T2, human β2 adrenergic receptor (Homo sapiens, UniProt P07550); assay: Whole-cell cAMP Flashplate assay using CHO-K1 cells stably expressing human β2 adrenergic receptor; assay type: cell-based; details: cAMP production
# T2 construct: expressed in transfected cells; host or cells: CHO-K1
# T2 sequence (P07550 whole entry): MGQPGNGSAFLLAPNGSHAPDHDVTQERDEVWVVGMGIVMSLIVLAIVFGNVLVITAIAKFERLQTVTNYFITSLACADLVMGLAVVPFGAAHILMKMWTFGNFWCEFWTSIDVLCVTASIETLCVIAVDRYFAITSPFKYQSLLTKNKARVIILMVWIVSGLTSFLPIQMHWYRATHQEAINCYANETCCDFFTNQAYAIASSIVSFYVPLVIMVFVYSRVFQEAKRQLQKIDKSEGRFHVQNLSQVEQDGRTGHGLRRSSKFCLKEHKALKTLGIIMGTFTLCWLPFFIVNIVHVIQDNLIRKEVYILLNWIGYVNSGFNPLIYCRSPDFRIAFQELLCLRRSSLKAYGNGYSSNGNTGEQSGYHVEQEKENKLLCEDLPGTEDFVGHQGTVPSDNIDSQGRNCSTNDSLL
smiles,measurement,setting,value
"COc1cc(NC(=O)CCCCc2ccc(-c3ccccc3)c(NC(=O)OC3CC[N+](C)(C)CC3)c2)c(Cl)cc1CNC[C@H](O)c1ccc(O)c2[nH]c(=O)ccc12 [Example 51, 4-({[5-(4-{[2-chloro-4-({[(2R)-2-hydroxy-2-(8-hydroxy-2-oxo-1,2-dihydroquinolin-5-yl)ethyl]amino}methyl)-5-methoxyphenyl]carbamoyl}butyl)-2-phenylphenyl]carbamoyl}oxy)-1,1-dimethylpiperidin-1-ium trifluoroacetate]",pIC50,[1],> 8.00
same,pEC50,[2],9.52
"C[N+]1(C)CCC(OC(=O)Nc2cc(CCC(=O)Nc3ccc(CNC[C@H](O)c4ccc(O)c5[nH]c(=O)ccc45)cc3)ccc2-c2ccccc2)CC1 [Example 1, 4-({[5-(2-{[4-({[(2R)-2-hydroxy-2-(8-hydroxy-2-oxo-1,2-dihydroquinolin-5-yl)ethyl]amino}methyl)phenyl]carbamoyl}ethyl)-2-phenylphenyl]carbamoyl}oxy)-1,1-dimethylpiperidin-1-ium trifluoroacetate]",pIC50,[1],> 8.00
same,pEC50,[2],8.89
